Experimental data published in patent US11384060B2, “Amide compounds and use thereof” (ALPHALA CO., LTD., priority 2017, dated 2022).
Where two headings read alike, the source gives them in different places.

Tests used:
[1] = biological target: T1, glucagon receptor (GCGR) overexpressed CHO-K1 cells or human primary hepatocytes (Homo sapiens, UniProt P47871); test: Glucagon cAMP inhibition assay (Cisbio cAMP Dynamic 2 HTRF); type: cell-based
T1 construct: expressed in transfected cells; host or cells: GCGR overexpressed CHO-K1 cells or human primary hepatocytes (endogenous receptor)
T1 sequence (P47871 26-477): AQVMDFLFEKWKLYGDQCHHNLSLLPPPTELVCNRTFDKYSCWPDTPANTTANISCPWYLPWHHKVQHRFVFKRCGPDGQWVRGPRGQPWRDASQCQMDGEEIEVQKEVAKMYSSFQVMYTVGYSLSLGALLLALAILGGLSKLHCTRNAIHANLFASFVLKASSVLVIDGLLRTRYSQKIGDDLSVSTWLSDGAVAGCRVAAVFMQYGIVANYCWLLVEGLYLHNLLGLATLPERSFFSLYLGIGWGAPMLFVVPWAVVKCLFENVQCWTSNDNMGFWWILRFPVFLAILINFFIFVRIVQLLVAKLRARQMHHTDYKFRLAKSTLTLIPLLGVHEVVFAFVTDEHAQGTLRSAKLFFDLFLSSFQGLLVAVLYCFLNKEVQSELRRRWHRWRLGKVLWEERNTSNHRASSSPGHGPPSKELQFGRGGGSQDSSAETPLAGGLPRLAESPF
Method in brief: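 HTRF read-out of glucagon-induced cAMP, with IC50 from non-linear regression. Cells (GCGR CHO-K1 or human primary hepatocytes) in HBSS/0.1% BSA/800 nM IBMX took compound dilutions for 30 min (final DMSO 1%), then EC50-level glucagon for 30 min at room temperature, then a 60 min lysis/detection step.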

[2] = biological target: T2, glucagon receptor (GCGR) (Homo sapiens, UniProt P47871); test: I125-glucagon binding assay (competition, GCGR membrane fractions)
T2 construct: expressed in transfected cells; host or cells: CHO-K1 cells overexpressing GCGR (membrane fractions)
T2 sequence (P47871 26-477): as above
Method in brief: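 Competition of 0.0625 nM (final) I^125-glucagon for 30 min at 25° C, after 5 min compound preincubation, using 7.5 μg/well GCGR-overexpressing CHO-K1 membranes in 50 mM Tris pH 7.4, 0.5% BSA. Filtration onto PEI-coated GF/B, micro-beta counting, and non-linear regression gave IC50.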

[3] = inhibition of glucagon (EC50 concentration) induced cAMP production
[4] = competition with I125-glucagon 0.0625 nM, membrane fractions of GCGR overexpressed CHO-K1 cells

## CC(C)[C@@H](COc1ccc(-c2cc(Cl)cc(Cl)c2)nc1)Nc1ccc(C(=O)NCCC(=O)O)cc1 [Compound 10-5, (S)-3-(4-((1-((6-(3,5-dichlorophenyl)pyridin-3-yl)oxy)-3-methylbutan-2-yl)amino)benzamido)propenoic Acid]
[1]; [3]
  IC50 cAMP: 3690 nM
[2]; [4]
  IC50: 441 nM

## CC[C@H](C)[C@@H](COc1cc(C)c(-c2ccc(Cl)cc2Cl)c(C)c1)Nc1ccc(C(=O)NCCC(=O)O)cc1 [Compound 2-9, 3-(4-(((2S,3S)-1-((2′,4′-dichloro-2,6-dimethyl-[1,1′-biphenyl]-4-yl)oxy)-3-methylpentan-2-yl)amino)benzamido)propanoic Acid]
[1]; [3]
  IC50 cAMP: 447.6 nM
[2]; [4]
  IC50: 60 nM

## CC(C)C[C@@H](COc1cnn(-c2ccc(F)cc2F)c1)Nc1ccc(C(=O)NCCC(=O)O)cc1 [Compound 9-6, (S)-3-(4-((1-((1-(2,4-difluorophenyl)-1H-pyrazol-4-yl)oxy)-4-methylpentan-2-yl)amino)benzamido)propanoic Acid]
[1]; [3]
  IC50 cAMP: 5577 nM
[2]; [4]
  IC50: 3650 nM

## CCCC[C@@H](COc1ccc(-c2ccc(Cl)cc2Cl)cc1)Nc1ccc(C(=O)NCc2nnn[nH]2)cc1 [Compound 1-18, (S)—N-((1H-tetrazol-5-yl)methyl)-4-((1-((2′,4′-dichloro-[1,1′-biphenyl]-4-yl)oxy)hexan-2-yl)amino)benzamide]
[1]; [3]
  IC50 cAMP: 1564 nM
[2]; [4]
  IC50: 31 nM

## CC(C)[C@@H](COc1ccc(-c2cn3ccccc3n2)cc1)Nc1ccc(C(=O)NCCC(=O)O)cc1 [Compound 1-39, (S)-3-(4-((1-(4-(imidazo[1,2-a]pyridin-2-yl)phenoxy)-3-methylbutan-2-yl)amino)benzamido)propanoic Acid]
[1]; [3]
  IC50 cAMP: 17895 nM
[2]; [4]
  IC50: 3810 nM

## CC[C@H](C)[C@@H](COc1ccc(-c2ccc(Cl)cc2Cl)cc1)Nc1ccc(C(=O)NCCC(=O)O)cn1 [Compound 4-3, 3-(6-(((2S,3S)-1-((2′,4′-dichloro-[1,1′-biphenyl]-4-yl)oxy)-3-methylpentan-2-yl)amino)nicotinamido)propanoic Acid]
[1]; [3]
  IC50 cAMP: 414 nM
[2]; [4]
  IC50: 610 nM

## CCCOC[C@H](Cc1ccc(-c2ccc(OC(F)(F)F)cc2)cc1)Nc1ccc(C(=O)NCCC(=O)O)cc1 [Compound 19-14, (S)-3-(4-((1-propoxy-3-(4′-(trifluoromethoxy)-[1,1′-biphenyl]-4-yl)propan-2-yl)amino)benzamido)propanoic Acid]
[1]
  IC50 cAMP: 787 nM
[2]
  IC50: 444 nM

## CCOC(=O)CCNC(=O)c1ccc(N[C@H](Cc2ccc(-c3cc4ccccc4o3)cc2)C(=O)Nc2cc(F)cc(F)c2)cc1 [Compound 24-23, Ethyl (R)-3-(4-((3-(4-(benzofuran-2-yl)phenyl)-1-((3,5-difluorophenyl)amino)-1-oxopropan-2-yl)amino)benzamido)propanoate]
[1]
  IC50 cAMP: 9529 nM
[2]
  IC50: 168 nM

## CC(C)[C@@H](COc1cc(F)c(-c2ccc(C(F)(F)F)cc2Cl)c(F)c1)Nc1ccc(C(=O)NCCC(=O)O)cc1 [Compound 7-2, (S)-3-(4-((1-((2′-chloro-2,6-difluoro-4′-(trifluoromethyl)-[1,1′-biphenyl]-4-yl)oxy)-3-methylbutan-2-yl)amino)benzamido)propanoic Acid]
[1]; [3]
  IC50 cAMP: 201 nM
[2]; [4]
  IC50: 177 nM

## CC[C@H](C)[C@@H](COc1ccc(-c2ccc(C(F)(F)F)cc2Cl)nc1)Nc1ccc(C(=O)NCCC(=O)O)cc1 [Compound 10-16, 3-(4-(((2S,3S)-1-((6-(2-chloro-4-(trifluoromethyl)phenyl)pyridin-3-yl)oxy)-3-methylpentan-2-yl)amino)benzamido)propanoic Acid]
[1]; [3]
  IC50 cAMP: 272 nM
[2]; [4]
  IC50: 141 nM

## CC(C)[C@@H](COc1ccc(-c2cc3ccccc3o2)c(F)c1)Nc1ccc(C(=O)NCCC(=O)O)cc1 [Compound 8-3, (S)-3-(4-((1-(4-(benzofuran-2-yl)-3-fluorophenoxy)-3-methylbutan-2-yl)amino)benzamido)propanoic Acid]
[1]; [3]
  IC50 cAMP: 84.4 nM
[2]; [4]
  IC50: 83 nM

## CC(C)[C@@H](COc1ccc(-c2ccc(C(C)(C)C)cc2)nn1)Nc1ccc(C(=O)NCCC(=O)O)cc1 [Compound 17-12, (S)-3-(4-((1-((6-(4-(tert-buty)phenyl)pyridazin-3-yl)oxy)-3-methylbutan-2-yl)amino)benzamido)propanoic Acid]
[1]; [3]
  IC50 cAMP: 6494 nM
[2]; [4]
  IC50: 20000 nM

## CC(C)[C@@H](COc1ccc(-c2cc3ccccc3o2)cn1)Nc1ccc(C(=O)NCCC(=O)O)cn1 [Compound 16-2, (S)-3-(6-((1-((5-(benzofuran-2-yl)pyridin-2-yl)oxy)-3-methylbutan-2-yl)amino)nicotinamido)propanoic Acid]
[1]; [3]
  IC50 cAMP: 239.3 nM
[2]; [4]
  IC50: 528 nM

## CC(C)C[C@@H](COc1ccc(-c2ccc(C(F)(F)F)cc2)nc1)Nc1ccc(C(=O)NCCC(=O)O)cc1 [Compound 10-17, (S)-3-(4-((4-methyl-1-((6-(4-(trifluoromethyl)phenyl)pyridin-3-yl)oxy)pentan-2-yl)amino)benzamido)propanoic Acid]
[1]; [3]
  IC50 cAMP: 847 nM
[2]; [4]
  IC50: 542 nM

## CC(C)[C@@H](COc1nnc(-c2ccc(C(F)(F)F)cc2)o1)Nc1ccc(C(=O)NCCC(=O)O)cc1 [Compound 22-13, (S)-3-(4-((3-methyl-1-((5-(4-(trifluoromethyl)phenyl)-1,3,4-oxadiazol-2-yl)oxy)butan-2-yl)amino)benzamido)propanoic Acid]
[1]
  IC50 cAMP: >30000 nM
[2]
  IC50: > 30000 nM

## CC[C@H](C)[C@@H](COc1ccc(-c2ccc(C(F)(F)F)cc2F)c(F)c1)Nc1ccc(C(=O)NCCC(=O)O)cc1 [Compound 8-10, 3-(4-(((2S,3S)-1-((2,2′-difluoro-4′-(trifluoromethyl)-[1,1′-biphenyl]-4-yl)oxy)-3-methylpentan-2-yl)amino)benzamido)propanoic Acid]
[1]; [3]
  IC50 cAMP: 353.2 nM
[2]; [4]
  IC50: 186 nM

## CCCC[C@@H](COc1ccc(-c2ccc(C(F)(F)F)cc2F)cc1)Nc1ccc(C(=O)NCCC(=O)O)cc1 [Compound 1-27, (S)-3-(4-((1-((2′-fluoro-4′-(trifluoromethyl)-[1,1′-biphenyl]-4-yl)oxy)hexan-2-yl)amino)benzamido)propanoic Acid]
[1]; [3]
  IC50 cAMP: 96.5 nM
[2]; [4]
  IC50: 108 nM

## C[C@@H](Cc1ccc(-c2ccc(C(C)(C)C)cc2)cc1)Nc1ccc(C(=O)NCCC(=O)O)cc1 [Compound 19-4, (S)-3-(4-((1-(4′-(tert-butyl)-[1,1′-biphenyl]-4-yl)propan-2-yl)amino)benzamido)propanoic Acid]
[1]
  IC50 cAMP: 3488 nM
[2]
  IC50: 1630 nM

## CC[C@H](C)[C@@H](COc1ccc(-c2cc3ccccc3o2)c(F)c1)Nc1ccc(C(=O)NCCC(=O)O)cc1 [Compound 8-7, 3-(4-(((2S,3S)-1-(4-(benzofuran-2-yl)-3-fluorophenoxy)-3-methylpentan-2-yl)amino)benzamido)propanoic Acid]
[1]; [3]
  IC50 cAMP: 129 nM
[2]; [4]
  IC50: 186 nM

## CCCC[C@@H](COc1ccc(-c2ccc(C(F)(F)F)cc2F)c(Cl)c1)Nc1ccc(C(=O)NCCC(=O)O)cc1 [Compound 3-22, (S)-3-(4-((1-((2-chloro-2′-fluoro-4′-(trifluoromethyl)-[1,1′-biphenyl]-4-yl)oxy)hexan-2-yl)amino)benzamido)propanoic Acid]
[1]; [3]
  IC50 cAMP: 54 nM
[2]; [4]
  IC50: 83 nM

## CC(C)[C@@H](COc1cc(F)c(-c2ccc(C(F)(F)F)cc2)c(F)c1)Nc1ccc(C(=O)NCCC(=O)O)cc1 [Compound 7-3, (S)-3-(4-((1-((2,6-difluoro-4′-(trifluoromethyl)-[1,1′-biphenyl]-4-yl)oxy)-3-methylbutan-2-yl)amino)benzamido)propanoic Acid]
[1]; [3]
  IC50 cAMP: 140 nM
[2]; [4]
  IC50: 107 nM

## CC(C)(C)[C@@H](COc1ccc(-c2ccc(C(F)(F)F)cc2F)c(Cl)c1)Nc1ccc(C(=O)NCCC(=O)O)cc1 [Compound 3-24, (S)-3-(4-((1-((2-chloro-2′-fluoro-4′-(trifluoromethyl)-[1,1′-biphenyl]-4-yl)oxy)-3,3-dimethylbutan-2-yl)amino)benzamido)propanoic Acid]
[1]; [3]
  IC50 cAMP: 80 nM
[2]; [4]
  IC50: 53 nM

## CCCOC[C@H](Cc1ccc(-c2cccc(OC(F)(F)F)c2)cc1)Nc1ccc(C(=O)NCCC(=O)O)cc1 [Compound 19-25, (S)-3-(4-((1-propoxy-3-(3′-(trifluoromethoxy)-[1,1′-biphenyl]-4-yl)propan-2-yl)amino)benzamido)propanoic Acid]
[1]
  IC50 cAMP: 1513 nM
[2]
  IC50: 1280 nM

## CC(C)C[C@H](Cc1ccc(-c2ccc(C(C)(C)C)cc2)cc1)Nc1ccc(C(=O)NCCC(=O)O)cc1 [Compound 19-8, (R)-3-(4-((1-(4′-(tert-butyl)-[1,1′-biphenyl]-4-yl)-4-methylpentan-2-yl)amino)benzamido)propanoic Acid]
[1]
  IC50 cAMP: 877 nM
[2]
  IC50: 152 nM

## CC[C@H](C)[C@@H](COc1ccc(-c2ccc(C(F)(F)F)cc2F)nn1)Nc1ccc(C(=O)NCCC(=O)O)cc1 [Compound 17-5, 3-(4-(((2S,3S)-1-((6-(2-fluoro-4-(trifluoromethyl)phenyl)pyridazin-3-yl)oxy)-3-methylpentan-2-yl)amino)benzamido)propanoic Acid]
[1]; [3]
  IC50 cAMP: 3332 nM
[2]; [4]
  IC50: 769 nM

## CC(C)[C@@H](COc1cnc(-c2ccc(C(F)(F)F)cc2Cl)nc1)Nc1ccc(C(=O)NCCC(=O)O)cc1 [Compound 12-4]
[1]; [3]
  IC50 cAMP: 9828 nM
[2]; [4]
  IC50: 539 nM
